Reference: article PMC10518717, “High-Throughput Screening and Proteomic Characterization of Compounds Targeting Myeloid-Derived Suppressor Cells” (Molecular & Cellular Proteomics : MCP, 2023)

Key:
[1] = test system: NUP-MDSC; experiment: Global proteome expression profiling of compound-treated NUP-MDSC (TMT LC-MS/MS); assay type: cell-based, mouse; conditions: 72 h; for log2 FC ENT_300/DMSO: 300 nM
Method: After treatments, medium was removed, cells were washed twice with PBS, and the cell pellets were further subjected to proteomic sample preparation.
The cell pellet was reconstituted in 2% SDS in 50 mM Tris–HCl pH 7.5 and lysed by heating to 95 °C for 10 min. One microliter of 100% TFA was added to each sample to hydrolyze DNA, and the pH was subsequently adjusted to 8.5 with 3 M Tris solution. Disulfide bonds were reduced with 10 mM DTT for 45 min at 37 °C, followed by alkylation of cysteines with 55 mM CAA for 30 min at room temperature. Prior to tryptic digestion, the detergent was removed from lysates by SP3 cleanup on an Agilent BRAVO system (Agilent Technologies), following the protocol first described by Hughes et al. ([34]). Briefly, lysate containing 200 μg of protein was mixed with SP3 beads, and proteins were precipitated onto a 50:50 mixture of Sera-Mag Speed Bead types A and B (Thermo Fisher Scientific) in 58% acetonitrile. Beads were washed three times with 80% ethanol in water and once with acetonitrile. Tryptic digest was performed in 100 μl of digestion buffer (2 mM CaCl2 in 25 mM Hepes, pH 8.5) with a 1:50 enzyme-to-protein ratio. Bead-precipitated proteins were digested at 37 °C overnight. On the next day, the supernatant of each sample was transferred to a new well and vacuum dried.
Dried peptides were reconstituted in water and labeled with the respective TMT10plex-labeling reagent as described previously ([35]) with a protein to tandem mass tag (TMT) reagent ratio of 1:2. Labeled samples were pooled, vacuum dried, and reconstituted in 0.1% formic acid (FA) prior to desalting on SepPAC50 columns (waters corp.). Peptides were fractionated using a Dionex Ultra 3000 HPLC system with a Waters XBridge BEH130 C18 3.5 um 2.1 × 250 mm column as described previously ([36]). Ninety-six fractions were collected and pooled to 48. For the full proteome analysis, one fifth of each fraction was transferred to a new 96-well plate and both plates were vacuum dried. For the phosphopeptide analysis, dried peptides were reconstituted in 55 μl 0.1% TFA in 30% ACN, pooled from 48 to 12 fractions, and mixed with 70 μl priming buffer (0.1% TFA, 100% ACN). Phosphopeptides were enriched from each of the 12 fractions using Fe(III)-IMAC-NTA cartridges on the AssayMAP BRAVO (Agilent Technologies) platform as described previously ([36]). Phosphopeptides were eluted with 60 μl 1% ammonia, vacuum dried, and stored at −20 °C prior to LC-MS/MS analysis.
The Fusion Lumos was operated in data-dependent acquisition and positive ionization mode. Samples were measured employing a MS3 method. In brief, full scan MS1 spectra were recorded in the orbitrap (OT) from 360 to 1560 m/z at 60,000 resolution using an automatic gain control (AGC) target value of 4e5 charges and a maximum injection time (maxIT) of 50 ms. Iontrap-MS2 spectra for peptide identification were acquired using higher energy collision dissociation (HCD) fragmentation with 32% normalized collision energy (NCE), an isolation window of 0.6 m/z, and an AGC target value of 1.2e4 charges. To obtain quantitative information on TMT reporter ions, each peptide precursor was fragmented again as for MS2 analysis followed by synchronous selection of the up to eight most intense peptide fragments in the iontrap ([37]) and further fragmentation via HCD using a NCE of 55%. The MS3 scan was recorded in the OT at 50,000 resolution (scan range 100–1000 m/z, isolation window of 1.2 m/z, AGC of 1e5 charges, maxIT of 86 ms). The cycle time was 1.2 s, and the dynamic exclusion lasted for 50 s.
Peptide, protein, and phosphorylation site identification and quantification were performed with MaxQuant software (v. 1.6.3.3, https://www.maxquant.org/) with standard settings for reporter ion MS3 unless described otherwise ([39]). Isotope impurities of the TMT lot were specified to allow MaxQuant the automated correction of TMT intensities. […]

[2] = molecular target: T1, NUP-MDSC cell lysate (Mus musculus, UniProt G5E8Z3); experiment: Chemoproteomic competition pulldown assay (iCor/iEnt affinity matrix), proteome-wide; assay type: binding; conditions: protein 2310050C09Rik (G5E8Z3)
T1 construct: endogenous in cells; host or cells: mouse NUP-MDSC (lysate)
From the text: (§1) Targets of the inhibitors were annotated manually.

[3] = molecular target: T2, NUP-MDSC cell lysate (Mus musculus, UniProt Q8WUR0); experiment: as above; assay type: binding; conditions: protein 1600014C10Rik (Protein C19orf12 homolog)
T2 construct: endogenous in cells; host or cells: mouse NUP-MDSC (lysate)
T2 sequence (Q8WUR0 1-141): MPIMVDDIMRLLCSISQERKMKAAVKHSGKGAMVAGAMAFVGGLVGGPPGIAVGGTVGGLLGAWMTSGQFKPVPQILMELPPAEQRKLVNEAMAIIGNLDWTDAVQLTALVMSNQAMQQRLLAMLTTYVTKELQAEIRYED
From the text: as §1

[4] = test system: NUP-MDSC cell lysate; experiment: as above; assay type: binding, mouse; conditions: NUP-MDSC lysate; iCor and iEnt
From the text: as §1

[5] = test system: HDAC1/2 and the CoREST complex; conditions: NUP-MDSC lysate; competition with iCor pulldown
Method: In vitro–differentiated NUP-MDSC were harvested, washed twice with PBS, and cell pellets were stored at −80 °C. For lysis, the pellets were slowly thawed at 20 °C and mixed with lysis buffer (0.8% Igepal, 50 mM Tris–HCl pH 7.5, 5% glycerol, 1.5 mM MgCl2, 150 mM NaCl, 1 mM Na3VO4, 25 mM NaF, 1 mM DTT, and supplemented with protease inhibitors (SigmaFast, Sigma) and phosphatase inhibitors (prepared in-house according to phosphatase inhibitor cocktail 1, 2, and 3 from Sigma-Aldrich)). Before usage, the cell lysates were cleared from debris by ultracentrifugation (52,000×g for 20 min at 4 °C); protein concentration was determined by Bradford assay. […]
Peptides were analyzed via LC-MS/MS on a Dionex Ultimate3000 nano HPLC coupled to an Orbitrap Fusion Lumos mass spectrometer (Thermo Fisher Scientific). […]
The mass spectrometer was operated in data-dependent mode, automatically switching between MS1 and MS2 spectra. […] Up to 12 peptide precursors were isolated (isolation width of 1.2 Th, maxIT of 75 ms, AGC value of 2e5), fragmented by HCD using 30% NCE, and analyzed in the OT at a resolution of 15,000. […]
Protein identification and quantification was performed using MaxQuant (v 1.6.1.0) by searching the LC-MS/MS data against all canonical protein sequences as annotated in the Swissprot reference database (v03.12.15, 20,193 entries, downloaded 22.03.2016) using the embedded search engine Andromeda. […]

T1 sequence (G5E8Z3 1-280): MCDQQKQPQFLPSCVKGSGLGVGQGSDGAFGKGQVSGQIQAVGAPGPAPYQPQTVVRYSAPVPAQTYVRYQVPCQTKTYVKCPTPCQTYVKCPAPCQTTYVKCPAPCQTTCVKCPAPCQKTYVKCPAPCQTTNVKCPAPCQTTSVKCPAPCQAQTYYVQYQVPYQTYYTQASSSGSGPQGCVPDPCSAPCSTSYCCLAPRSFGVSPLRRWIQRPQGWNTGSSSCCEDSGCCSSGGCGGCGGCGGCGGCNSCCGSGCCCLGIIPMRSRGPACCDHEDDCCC

## Nc1ccccc1NC(=O)c1ccc(CNC(=O)OCc2cccnc2)cc1 [entinostat]
[1]; 30 and 300 nM
  protein expression of Il1a, Il1b, and Il1rn: dose-dependently upregulated
[1]; 30 and 300 nM, dose-dependent manner
  protein level of Cxcr3, Ccl9, and Ccr5: increased
[1]; protein Cask
  log2 FC ENT_300/DMSO: -0.505
[1]; protein Hsf1
  log2 FC ENT_300/DMSO: -0.1449
[1]; protein Inpp5j
  log2 FC ENT_300/DMSO: 0.4672
[1]; protein Magohb;Magoh
  log2 FC ENT_300/DMSO: 0.03399
[2]; Entinostat 3nM
  Intensity 3nM: 4673000
  LFQ intensity 3nM: 0
[2]; Entinostat 10nM
  Intensity 10nM: 39076000
  LFQ intensity 10nM: 48940000
[2]; Entinostat 30nM
  Intensity 30nM: 0
  LFQ intensity 30nM: 0
[2]; Entinostat 100nM
  Intensity 100nM: 0
  LFQ intensity 100nM: 0
[2]; Entinostat 300nM
  Intensity 300nM: 63615000
  LFQ intensity 300nM: 92239000
[2]; Entinostat 1000nM
  Intensity 1000nM: 0
  LFQ intensity 1000nM: 0
[2]; Entinostat 3000nM
  Intensity 3000nM: 17259000
  LFQ intensity 3000nM: 18337000
[2]; Entinostat 30000nM
  Intensity 30000nM: 37204000
  LFQ intensity 30000nM: 38240000
[3]; Entinostat 3nM
  Intensity 3nM: 20883000
  LFQ intensity 3nM: 42321000
[3]; Entinostat 10nM
  Intensity 10nM: 34795000
  LFQ intensity 10nM: 40587000
[3]; Entinostat 30nM
  Intensity 30nM: 27408000
  LFQ intensity 30nM: 39634000
[3]; Entinostat 100nM
  Intensity 100nM: 29285000
  LFQ intensity 100nM: 35458000
[3]; Entinostat 300nM
  Intensity 300nM: 23203000
  LFQ intensity 300nM: 36056000
[3]; Entinostat 1000nM
  Intensity 1000nM: 28303000
  LFQ intensity 1000nM: 37293000
[3]; Entinostat 3000nM
  Intensity 3000nM: 35943000
  LFQ intensity 3000nM: 42228000
[3]; Entinostat 30000nM
  Intensity 30000nM: 27116000
  LFQ intensity 30000nM: 26320000
[4]
  additional targets identified: No additional targets
[5]
  target affinity: high affinities
